# From patent publication US20230111310A1, “CARBOXYLIC ACID DERIVATIVE-SUBSTITUTED IMINO ARYL COMPOUND, PREPARATION METHOD THEREFOR, HERBICIDAL COMPOSITION AND USE THEREOF” (Qingdao Kingagroot Chemical Compound Co., Ltd., priority 2020, published 2023)
# Key:
# Experiment in all cases: Weeding effect in post-emergence stage
# Format in all cases: in vivo
# Eleusine indica = details: for Weeding effect in post-emergence stage, Eleusine indica: level of fresh weight growth control rate; for Weeding effect in post-emergence stage, Eleusine indica (level): fresh weight control rate level
# How it was run: (§1)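 Seeds are sown in soil-filled pots under 0.5-2 cm soil and grown 2 weeks in greenhouse. Plants at 2-3 leaves are sprayed with compound (acetone, Tween 80, 1.5 liter/ha methyl oleate EC, water) at 7.5 to 500 g/ha. Damage is rated 3 weeks later, averaging three repeats.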
# Alopecurus japonicus = details: for Weeding effect in post-emergence stage, Alopecurus japonicus: level of fresh weight growth control rate; for Weeding effect in post-emergence stage, Alopecurus japonicus (level): fresh weight control rate level
# How it was run: as §1
# Digitaria sanguinalis = details: for Weeding effect in post-emergence stage, Digitaria sanguinalis: level of fresh weight growth control rate; for Weeding effect in post-emergence stage, Digitaria sanguinalis (level): fresh weight control rate level
# How it was run: as §1
# Setaria viridis = details: for Weeding effect in post-emergence stage, Setaria viridis: level of fresh weight growth control rate; for Weeding effect in post-emergence stage, Setaria viridis (level): fresh weight control rate level
# How it was run: as §1
# Abutilon theophrasti = details: for Weeding effect in post-emergence stage, Abutilon theophrasti: level of fresh weight growth control rate; for Weeding effect in post-emergence stage, Abutilon theophrasti (level): fresh weight control rate level
# How it was run: as §1
# Echinochloa crusgalli = details: for Weeding effect in post-emergence stage, Echinochloa crusgalli: level of fresh weight growth control rate; for Weeding effect in post-emergence stage, Echinochloa crusgalli (level): fresh weight control rate level
# How it was run: as §1
SMILES,"Weeding effect in post-emergence stage, Eleusine indica (Eleusine indica; Dose 15 g/ha)","Weeding effect in post-emergence stage, Alopecurus japonicus (Alopecurus japonicus; Dose 15 g/ha)","Weeding effect in post-emergence stage, Digitaria sanguinalis (Digitaria sanguinalis; Dose 15 g/ha)","Weeding effect in post-emergence stage, Setaria viridis (Setaria viridis; Dose 15 g/ha)","Weeding effect in post-emergence stage, Abutilon theophrasti (Abutilon theophrasti; Dose 15 g/ha)","Weeding effect in post-emergence stage, Echinochloa crusgalli (Echinochloa crusgalli; Dose 15 g/ha)",also measured
COC(=O)[C@@H](C)O/N=C/c1cc(-n2c(=O)n(C)c(=S)n(C)c2=O)c(F)cc1C#N [87(R)],5 (Level 5: growth control rate is above 85%),5 (Level 5: growth control rate is above 85%),5 (Level 5: growth control rate is above 85%),5 (Level 5: growth control rate is above 85%),5 (Level 5: growth control rate is above 85%),5 (Level 5: growth control rate is above 85%),–
COC(=O)C(CCCl)O/N=C/c1cc(-n2c(=O)cc(C(F)(F)F)n(C)c2=O)c(F)cc1Cl (stereo not drawn) [Compound 497],–,–,–,–,–,–,"Weeding effect in post-emergence stage, Eleusine indica (level) (Eleusine indica; Dose 15 g/ha): 5 (Level 5: growth control rate is above 85%); Weeding effect in post-emergence stage, Alopecurus japonicus (level) (Alopecurus japonicus; Dose 15 g/ha): 5 (Level 5: growth control rate is above 85%); Weeding effect in post-emergence stage, Digitaria sanguinalis (level) (Digitaria sanguinalis; Dose 15 g/ha): 5 (Level 5: growth control rate is above 85%); Weeding effect in post-emergence stage, Setaria viridis (level) (Setaria viridis; Dose 15 g/ha): 5 (Level 5: growth control rate is above 85%); Weeding effect in post-emergence stage, Abutilon theophrasti (level) (Abutilon theophrasti; Dose 15 g/ha): 5 (Level 5: growth control rate is above 85%); Weeding effect in post-emergence stage, Echinochloa crusgalli (level) (Echinochloa crusgalli; Dose 15 g/ha): 5 (Level 5: growth control rate is above 85%)"
CC(O/N=C/c1cc(-n2c(=O)cc(C(F)(F)F)n(C)c2=O)c(F)cc1Cl)C(=O)N1CCOCC1 (stereo not drawn) [Compound 454],–,–,–,–,–,–,"Weeding effect in post-emergence stage, Eleusine indica (level) (Eleusine indica; Dose 60 g/ha): 5 (Level 5: growth control rate is above 85%); Weeding effect in post-emergence stage, Alopecurus japonicus (level) (Alopecurus japonicus; Dose 60 g/ha): 5 (Level 5: growth control rate is above 85%); Weeding effect in post-emergence stage, Digitaria sanguinalis (level) (Digitaria sanguinalis; Dose 60 g/ha): 5 (Level 5: growth control rate is above 85%); Weeding effect in post-emergence stage, Setaria viridis (level) (Setaria viridis; Dose 60 g/ha): 5 (Level 5: growth control rate is above 85%); Weeding effect in post-emergence stage, Abutilon theophrasti (level) (Abutilon theophrasti; Dose 60 g/ha): 5 (Level 5: growth control rate is above 85%); Weeding effect in post-emergence stage, Echinochloa crusgalli (level) (Echinochloa crusgalli; Dose 60 g/ha): 5 (Level 5: growth control rate is above 85%)"
C=CCCOC(=O)C(C)O/N=C/c1cc(-n2c(=O)cc(C(F)(F)F)n(C)c2=O)c(F)cc1Cl (racemic) [Compound 209],5 (Level 5: growth control rate is above 85%),5 (Level 5: growth control rate is above 85%),5 (Level 5: growth control rate is above 85%),5 (Level 5: growth control rate is above 85%),5 (Level 5: growth control rate is above 85%),5 (Level 5: growth control rate is above 85%),–
CC[C@@H](O/N=C/c1cc(-n2c(=O)n(C)c(=S)n(C)c2=O)c(F)cc1Cl)C(=O)OC [72(R)],5 (Level 5: growth control rate is above 85%),5 (Level 5: growth control rate is above 85%),5 (Level 5: growth control rate is above 85%),5 (Level 5: growth control rate is above 85%),5 (Level 5: growth control rate is above 85%),5 (Level 5: growth control rate is above 85%),–
CCCCCCCCOC(=O)[C@@H](C)O/N=C/c1cc(-n2c(=O)cc(C(F)(F)F)n(C)c2=O)c(F)cc1Cl [206(R)],5 (Level 5: growth control rate is above 85%),5 (Level 5: growth control rate is above 85%),5 (Level 5: growth control rate is above 85%),5 (Level 5: growth control rate is above 85%),5 (Level 5: growth control rate is above 85%),5 (Level 5: growth control rate is above 85%),–
COC(=O)[C@@H](C)O/N=C/c1cc(-n2c(=S)cc(C(F)(F)F)n(C)c2=S)c(F)cc1Cl [351(R)],–,–,–,–,–,–,"Weeding effect in post-emergence stage, Eleusine indica (level) (Eleusine indica; Dose 60 g/ha): 5 (Level 5: growth control rate is above 85%); Weeding effect in post-emergence stage, Alopecurus japonicus (level) (Alopecurus japonicus; Dose 60 g/ha): 5 (Level 5: growth control rate is above 85%); Weeding effect in post-emergence stage, Digitaria sanguinalis (level) (Digitaria sanguinalis; Dose 60 g/ha): 5 (Level 5: growth control rate is above 85%); Weeding effect in post-emergence stage, Setaria viridis (level) (Setaria viridis; Dose 60 g/ha): 5 (Level 5: growth control rate is above 85%); Weeding effect in post-emergence stage, Abutilon theophrasti (level) (Abutilon theophrasti; Dose 60 g/ha): 5 (Level 5: growth control rate is above 85%); Weeding effect in post-emergence stage, Echinochloa crusgalli (level) (Echinochloa crusgalli; Dose 60 g/ha): 5 (Level 5: growth control rate is above 85%)"
C[C@@H](O/N=C/c1cc(-n2c(=O)n(C)c(=S)n(C)c2=O)c(F)cc1Cl)C(=O)OCC1CCCO1 (stereo partly drawn) [24(R)],5 (Level 5: growth control rate is above 85%),5 (Level 5: growth control rate is above 85%),5 (Level 5: growth control rate is above 85%),5 (Level 5: growth control rate is above 85%),5 (Level 5: growth control rate is above 85%),5 (Level 5: growth control rate is above 85%),–
CCOC(=O)[C@H](O/N=C/c1cc(-n2c(=O)n(C)c(=S)n(C)c2=O)c(F)cc1Cl)C1CC1 [76(R)],5 (Level 5: growth control rate is above 85%),5 (Level 5: growth control rate is above 85%),5 (Level 5: growth control rate is above 85%),5 (Level 5: growth control rate is above 85%),5 (Level 5: growth control rate is above 85%),5 (Level 5: growth control rate is above 85%),–
CCSC(=O)C(C)O/N=C/c1cc(-n2c(=O)n(C)c(=O)n(C)c2=O)c(F)cc1Cl (stereo not drawn) [Compound 491],–,–,–,–,–,–,"Weeding effect in post-emergence stage, Eleusine indica (level) (Eleusine indica; Dose 15 g/ha): 5 (Level 5: growth control rate is above 85%); Weeding effect in post-emergence stage, Alopecurus japonicus (level) (Alopecurus japonicus; Dose 15 g/ha): 5 (Level 5: growth control rate is above 85%); Weeding effect in post-emergence stage, Digitaria sanguinalis (level) (Digitaria sanguinalis; Dose 15 g/ha): 5 (Level 5: growth control rate is above 85%); Weeding effect in post-emergence stage, Setaria viridis (level) (Setaria viridis; Dose 15 g/ha): 5 (Level 5: growth control rate is above 85%); Weeding effect in post-emergence stage, Abutilon theophrasti (level) (Abutilon theophrasti; Dose 15 g/ha): 5 (Level 5: growth control rate is above 85%); Weeding effect in post-emergence stage, Echinochloa crusgalli (level) (Echinochloa crusgalli; Dose 15 g/ha): 5 (Level 5: growth control rate is above 85%)"
COC(=O)[C@@H](C)N/N=C/c1cc(-n2c(=O)cc(C(F)(F)F)n(C)c2=O)c(F)cc1Cl [919(R)],–,–,–,–,–,–,"Weeding effect in post-emergence stage, Eleusine indica (level) (Eleusine indica; Dose 30 g/ha): 5 (Level 5: growth control rate is above 85%); Weeding effect in post-emergence stage, Alopecurus japonicus (level) (Alopecurus japonicus; Dose 30 g/ha): 5 (Level 5: growth control rate is above 85%); Weeding effect in post-emergence stage, Digitaria sanguinalis (level) (Digitaria sanguinalis; Dose 30 g/ha): 5 (Level 5: growth control rate is above 85%); Weeding effect in post-emergence stage, Setaria viridis (level) (Setaria viridis; Dose 30 g/ha): 5 (Level 5: growth control rate is above 85%); Weeding effect in post-emergence stage, Abutilon theophrasti (level) (Abutilon theophrasti; Dose 30 g/ha): 5 (Level 5: growth control rate is above 85%); Weeding effect in post-emergence stage, Echinochloa crusgalli (level) (Echinochloa crusgalli; Dose 30 g/ha): 5 (Level 5: growth control rate is above 85%)"
